Measured values taken from US20190231757A1, “COMBINATION OF SPLEEN TYROSINE KINASE INHIBITORS AND OTHER THERAPEUTIC AGENTS” (Takeda Pharmaceutical Company Limited, priority 2016, published 2019).
“And” between values parts separate entries of the source, which are not always exact repeats. Identical values can stand only once. Counter-ions that a name gives are not always drawn.

Legend:
Format in all cases: in vivo, mouse
TMD8 DLBCL xenografts = experiment: Antitumor activity in CB17 SCID mice bearing TMD8 DLBCL xenografts, bendamustine combination (Example 3); conditions: bendamustine 1 mg/kg IV BIW, alone or combined, Day 14
Ly19 xenografts = experiment: Antitumor activity in SCID mice bearing Ly19 xenografts, bendamustine combination (Example 4); conditions: alone or combined
[1] = Body weight and tolerability, A20 study (Example 1); conditions: Compound A 60 mg/kg PO QD 21 d, anti-PD-1 10 mg/kg IP Q4D x3, alone or combined
[2] = Day 14, Compound A 60 mg/kg PO QD x14, bendamustine 1.0 mg/kg IV BIW x2

## Cn1cc(-c2nc(N[C@@H]3CCCC[C@@H]3N)c(F)c3c2C(=O)NC3)cn1 [Compound A, 6-((1R,2S)-2-aminocyclohexylamino)-7-fluoro-4-(1-methyl-1H-pyrazol-4-yl)-1H-pyrrolo[3,4-c]pyridine-3 (2H)-one citrate]
TMD8 DLBCL xenografts; Compound A 60 mg/kg PO QD 14 d
  Mean Tumor Volume (mm^3) ± SEM: 1,085.5 ± 173.3 mm^3
TMD8 DLBCL xenografts; Compound A 60 mg/kg PO QD
  T/C: 0.61
  TGI (%): 38.5%
Ly19 xenografts; [2]
  Mean Tumor Volume (mm^3) ± SEM at Day 14: 1683.9 ± 167.1 mm^3
  TGI (%): 32.6%
Ly19 xenografts; vs vehicle, Compound A 60 mg/kg, bendamustine 1.0 mg/kg
  dAUC: 18.8
[1]
  Number of animals removed: 1
[1]; maximum change within treatment period, citrate
  % BW Change (Day Maximum): 15.8% and 15.8 (19) %
